In brackets after ≈: the same amount, converted by molar mass.
What was measured:
[1] = Stability of solutions/formulations; type: physicochemical; details: for Stability in 10 wt/vol HPCD: PBS/HPCD (25:75) solution; for Stability of HPCD formulation: 10 wt/vol % HPCD, room temperature
Text: (§1) This is illustrated for compound 15 in Table 7.

log P = type: physicochemical
[2] = Solubility in water and formulations; details: for Solubility in 10 wt/vol HPCD: PBS/HPCD (25:75) solution; for solubility in water or in 10% HPCD: TFA salts, not neutralized; for Solubility 10 wt/vol % HPCD water: Na salts in aqueous 10 wt/vol % HPCD; for Solubility Water: Na salts in water
Experimental: (§3) Alternatively, the sodium salt can be prepared in situ by dissolving the free acid in phosphate buffered saline (PBS) that has been buffered to a pH of 7.4. The solubility and stability of these solutions can be improved by the use of an aqueous soluble co-solvent such as, but not limited to HPCD. This solubility can be further improved by the addition of surfactants such as PEG 400. In general, the free acid is suspended in 10 wt/vol % HPDC (10 g dissolved in 100 mL water) and treated with 0.5M PBS (pH 7.4) such that the volumes are in a ratio of 75:25.

pH of formulation = type: physicochemical; details: PBS/HPCD (25:75) solution
Text: as §1

Male Sprague-Dawley rats = experiment: Rat model of cisplatin induced neuropathy (SNCV); type: in vivo; details: for efficacy in cisplatin model of peripheral neuropathy: dose not stated
Experimental: (§2) Male Sprague-Dawley rats were administered 2.5 mg/kg cisplatin daily, for five consecutive days to achieve a final cumulative dose of 12.5 mg/kg. On the third day following the final cisplatin injection, animals received compounds SC at concentrations of (3, 10, and 30 mg/kg). Dosing continued Monday through Friday for three consecutive weeks. The effect of cisplatin on peripheral nerve function, and the ability of the compounds to attenuate the cisplatin effect were determined after three weeks of drug treatment by measuring the sensory nerve conduction velocity (SNCV) in the caudal nerve of the tail. Stimulating electrodes were used to deliver 2 mA pulses once per second for 1.5 min. The resulting compound sensory nerve action potentials were averaged, and the mean response onset time was determined from the averaged response. Two mean response times were determined, the second being 20 mm distal from the first. The difference in onset time between the two recordings was determined and used to calculate the conductance velocity.
Male Sprague-Dawley rats (weighing 200-225 g on arrival) were intraperitoneally administered 2.5 mg/kg cisplatin daily, for five consecutive days to achieve a final cumulative dose of 12.5 mg/kg. On the third day following the final cisplatin injection, animals received compounds SC at concentrations of (3, 10, and 30 mg/kg). Dosing continued Monday through Friday for three consecutive weeks.
as §2, with “The” for “Male Sprague-Dawley rats were administered 2.5 mg/kg cisplatin daily, for five consecutive days to achieve a final cumulative dose of 12.5 mg/kg. On the third day following the final cisplatin injection, animals received compounds SC at concentrations of (3, 10, and 30 mg/kg). Dosing continued Monday through Friday for three consecutive weeks. The”, “velocity. [formula]” for “velocity.”
The results of these experiments were combined, and ANOVA was performed, followed by a Fisher LSD test.

physchem = details: water
Experimental: as §3

SCG neurons = details: Taxol induced cell death; read-out: Taxol SCG IC50; cited from earlier work

| Stability in 10 wt/vol HPCD [1] [weeks] | log P (log P) | Solubility in 10 wt/vol HPCD [2] [µg/mL] | pH (pH of formulation) | solubility (physchem) [µg/mL] | Structure (SMILES) | also measured |
| --- | --- | --- | --- | --- | --- | --- |
| >1 | 4.85 | 10000 (≈ 20100 µM) | 7.4 | – | COCC(=O)NS(=O)(=O)c1nn2cc(-c3ccc(-c4cccc(C(F)(F)F)c4)cc3)nc2s1 [Compound 39] | Cisplatin-induced attenuation of SNCV (Male Sprague-Dawley rats; 30 mg/kg SC): protective activity |
| >4 | 3.32 | 10000 (≈ 22900 µM) | 7.4 | – | CC(C)(C)OC(=O)NCC(=O)NS(=O)(=O)c1nn2cc(-c3ccccc3)nc2s1 [Compound 18] | – |
| >4 | 2.48 | 10000 (≈ 24500 µM) | 7.4 | – | CC(=O)NS(=O)(=O)c1nn2cc(-c3ccc(N4CCOCC4)cc3)nc2s1 [Compound 31] | Cisplatin-induced attenuation of SNCV (Male Sprague-Dawley rats; 30 mg/kg SC): protective activity |
| >1 | 3.37 | 5000 (≈ 9770 µM) | 7.4 | – | CSCCC(NC(=O)OC(C)(C)C)C(=O)NS(=O)(=O)c1nn2cc(-c3ccccc3)nc2s1 (centres unmarked) [Compound 23] | – |
| >1 | 5.19 | 10000 (≈ 21400 µM) | 7.4 | – | CC(=O)NS(=O)(=O)c1nn2cc(-c3ccc(-c4cccc(C(F)(F)F)c4)cc3)nc2s1 [Compound 37] | dissolution ([2]; 25 mg in 1 mL PEG 400/ethanol (50:50) + ethanolamine (20 μL)): clear solution |
| – | – | – | – | – | CSCCC(N)C(=O)NS(=O)(=O)c1nn2cc(-c3ccccc3)nc2s1 (centres unmarked) [Compound 24] | solubility in water or in 10% HPCD [2]: not soluble |
| >1 | 5.76 | 5000 (≈ 9530 µM) | 7.4 | – | CC(C)(C)OC(=O)NS(=O)(=O)c1nn2cc(-c3ccc(-c4cccc(C(F)(F)F)c4)cc3)nc2s1 [Compound 43] | – |
| – | 2.14 | – | – | – | COCC(=O)NS(=O)(=O)c1nn2cc(-c3ccc(N4CCOCC4)cc3)nc2s1 [Compound 32] | – |
| – | – | – | – | – | O=C(NS(=O)(=O)c1nn2cc(-c3ccccc3)nc2s1)C1CCCN1 (centres unmarked) [Compound 26] | solubility in water or in 10% HPCD [2]: not soluble |
| >4 | 3.67 | 4000 (≈ 11400 µM) | 7.4 | – | CCCC(=O)NS(=O)(=O)c1nn2cc(-c3ccccc3)nc2s1 [Compound 16] | – |
| – | – | – | – | – | [NH-]S(=O)(=O)c1nn2cc(-c3ccc(N4CCOCC4)cc3)nc2s1.[Na+] [Compound 6] | Stability of HPCD formulation [1]: >14 days; Solubility 10 wt/vol % HPCD water [2]: 15000 µg/mL; Solubility Water [2]: 2300 µg/mL; Cisplatin-induced loss in SNCV (Male Sprague-Dawley rats; 10-30 mg/kg, data not shown): protective; efficacy in cisplatin model of peripheral neuropathy (Male Sprague-Dawley rats): efficacy |
| >1 | 4.96 | 10000 (≈ 18500 µM) | 7.4 | – | COCCOCC(=O)NS(=O)(=O)c1nn2cc(-c3ccc(-c4cccc(C(F)(F)F)c4)cc3)nc2s1 [Compound 41] | – |
| >4 | 2.26 | 8000 (≈ 21000 µM) | 7.4 | – | O=C(O)CCC(=O)NS(=O)(=O)c1nn2cc(-c3ccccc3)nc2s1 [Compound 22] | – |
| – | – | – | – | < 500 | NS(=O)(=O)c1nn2cc(-c3ccc4c(c3)NC(=O)CO4)nc2s1 [Compound 128] | – |
| – | – | – | – | – | [NH-]S(=O)(=O)c1nn2cc(-c3ccc(Oc4ccc(Cl)cc4)cc3)nc2s1.[Na+] [Compound 14] | Stability of HPCD formulation [1]: >14 days; Solubility 10 wt/vol % HPCD water [2]: 20000 µg/mL; Solubility Water [2]: 10000 µg/mL; Cisplatin-induced attenuation of SNCV (Male Sprague-Dawley rats; 10 mg/kg): prevented; Cisplatin-induced loss in SNCV (Male Sprague-Dawley rats; 10 and 30 mg/kg): prevented; efficacy in cisplatin model of peripheral neuropathy (Male Sprague-Dawley rats): efficacy |
| – | – | – | – | < 500 | Cc1c(-c2cn3nc(S(N)(=O)=O)sc3n2)sc2ccccc12 [Compound 133] | – |
| >4 | 4.35 | 10000 (≈ 17100 µM) | 7.4 | – | COCCOCCOCC(=O)NS(=O)(=O)c1nn2cc(-c3ccc(-c4cccc(C(F)(F)F)c4)cc3)nc2s1 [Compound 42] | – |
| – | – | – | – | < 500 | NS(=O)(=O)c1nn2cc(C34CC5CC(CC(C5)C3)C4)nc2s1 [Compound 92] | – |

| Stability in 10 wt/vol HPCD [1] [weeks] | log P (log P) | Solubility in 10 wt/vol HPCD [2] [µg/mL] | pH (pH of formulation) | solubility (physchem) [µg/mL] | Structure (SMILES) | also measured |
| --- | --- | --- | --- | --- | --- | --- |
| – | – | – | – | < 500 | NS(=O)(=O)c1nn2cc(-c3cccc([N+](=O)[O-])c3)nc2s1 [Compound 74] | – |
| – | – | – | – | < 500 | COc1ccccc1-c1ccc(-c2cn3nc(S(N)(=O)=O)sc3n2)cc1 [Compound 100] | – |
| – | – | – | – | < 500 | NS(=O)(=O)c1nn2cc(-c3ccc(F)cc3)nc2s1 [Compound 54] | – |
| – | – | – | – | – | COCC(=O)NS(=O)(=O)c1nn2cc(-c3ccc(Oc4ccc(Cl)cc4)cc3)nc2s1 [Compound 45] | Cisplatin-induced attenuation of SNCV (Male Sprague-Dawley rats; 30 mg/kg SC): protective activity |
| – | – | – | – | – | NS(=O)(=O)c1nn2cc(-c3ccc4c(c3)OCCCO4)nc2s1 [Compound 7] | IC50 (SCG neurons): 7 µM |
| – | – | – | – | < 500 | NS(=O)(=O)c1nn2cc(-c3cccc(OC(F)(F)F)c3)nc2s1 [Compound 66] | – |
| – | – | – | – | < 500 | N#Cc1cccc(-c2cn3nc(S(N)(=O)=O)sc3n2)c1 [Compound 77] | – |
| – | – | – | – | < 500 | N#Cc1ccc(-c2cn3nc(S(N)(=O)=O)sc3n2)cc1 [Compound 78] | – |
| – | – | – | – | < 500 | COc1ccc(-c2cn3nc(S(N)(=O)=O)sc3n2)c(OC)c1 [Compound 64] | – |
| – | – | – | – | < 500 | Cc1ccc(C23CC4CC(CC2C4)C3)cc1-c1cn2nc(S(N)(=O)=O)sc2n1 [Compound 83] | – |
| – | – | – | – | < 500 | NS(=O)(=O)c1nn2cc(-c3cccc4ccccc34)nc2s1 [Compound 93] | – |
| – | – | – | – | < 500 | Cc1nc(C)c(-c2cn3nc(S(N)(=O)=O)sc3n2)s1 [Compound 139] | – |
| – | – | – | – | < 500 | NS(=O)(=O)c1nn2cc(-c3ccc(Oc4ccccc4Br)cc3)nc2s1 [Compound 114] | – |
| – | – | – | – | < 500 | COc1ccc(-c2cn3nc(S(N)(=O)=O)sc3n2)cc1 [Compound 62] | – |
| – | – | – | – | < 500 | NS(=O)(=O)c1nn2cc(-c3ccc(-c4ccc(C(F)(F)F)cc4)cc3)nc2s1 [Compound 105] | – |
| – | – | – | – | – | [NH-]S(=O)(=O)c1nn2cc(-c3ccc(-c4cccc(C(F)(F)F)c4)cc3)nc2s1.[Na+] [Compound 12] | Stability of HPCD formulation [1]: >14 days; Solubility 10 wt/vol % HPCD water [2]: 4000 µg/mL; Solubility Water [2]: 1400 µg/mL; Cisplatin-induced loss in SNCV (Male Sprague-Dawley rats; 10-30 mg/kg, data not shown): protective; efficacy in cisplatin model of peripheral neuropathy (Male Sprague-Dawley rats): efficacy |
| – | – | – | – | < 500 | NS(=O)(=O)c1nn2cc(-c3ccc(-c4ccc5c(c4)OCO5)cc3)nc2s1 [Compound 103] | – |
| >1 | 6.26 | 5000 (≈ 10100 µM) | 7.4 | – | CCCC(=O)NS(=O)(=O)c1nn2cc(-c3ccc(-c4cccc(C(F)(F)F)c4)cc3)nc2s1 [Compound 40] | – |

| Structure (SMILES) | Stability in 10 wt/vol HPCD [1] [weeks] | log P (log P) | Solubility in 10 wt/vol HPCD [2] [µg/mL] | pH (pH of formulation) | solubility (physchem) [µg/mL] | also measured |
| --- | --- | --- | --- | --- | --- | --- |
| CC(=O)NCC(=O)NS(=O)(=O)c1nn2cc(-c3ccccc3)nc2s1 [Compound 20] | >4 | 1.45 | 10000 (≈ 26400 µM) | 7.4 | – | – |

From patent US20070112043A1, “Acylated and non-acylated imidazo[2,1-b]-1,3,4,-thiadiazole-2-sulfonamides, and uses thereof” (priority 2003, published 2007)
